Source: patent US8846704B2, “Thiopyrimidine-based compounds and uses thereof” (YM Biosciences Austraila Pty Ltd, priority 2007, dated 2014)

Key:
Format in all cases: biochemical
Flt 4(h) = target: T1, Flt 4(h) (Homo sapiens, UniProt P35916); experiment: Upstate KinaseProfiler enzyme assay, Flt 4; details: 500 nM compound; read-out: Percent inhibition at 500 nM Flt 4(h)
T1 construct: purchased Upstate Biotechnology (Dundee, UK), KinaseProfiler service
Protocol: (§1) Further enzyme assays were conducted at Upstate Biotechnology (Dundee, UK) in the KinaseProfiler™ Assay system.
(§2) The general protocol is as follows. All kinases are pre-diluted to a 10× working concentration prior to addition into the assay. The composition of the dilution buffer for the kinases is 20 mM MOPS pH 7.0, 1 mM EDTA, 0.1% β-mercaptoethanol, 0.01% Brij-35, 5% glycerol, 1 mg/ml BSA. All substrates are dissolved and diluted to working stocks in de-ionised water.

human JAK2 = target: T2, human JAK2 (Homo sapiens, UniProt O60674); experiment: Alphascreen tyrosine kinase enzyme assay, JAK2 kinase domain; details: read-out: JAK2 IC50_nM
T2 construct: The kinase domain of human JAK2 was amplified; GST (N); made in house; host or cells: Sf9 insect cells (baculovirus)
Protocol: (§3) For screening purposes, compounds (in 100% DMSO) were warmed at 37 degrees for at least 20 minutes before use. A […] stock was initially made in assay buffer, where the final concentration of DMSO was 0.3%. The stocks were then diluted in 384 well Optiplates (Packard) where the final concentration of the compound was […].
The kinase domain of human JAK2 was amplified from U937mRNA using the polymerase chain reaction with the following primers: […]
The JAK2 PCR products were cloned into the pDest20 destination vector (Gibco). The JAK2 plasmid was then transformed into competent DH10Bac cells (Gibco), and the recombinant baculovirus was prepared via Sf9 insect cell transfection.
(§4) Baculovirus preparations from each of the constructs were infected into either one or five liters of Sf9 cells (Invitrogen) grown in SF-900 medium (Invitrogen) to a cell density of approximately 1-2×10^6 cells/ml. Cells were infected with virus at a MOI of 0.8-3.0. Cells were harvested and lysed. Tyrosine kinase domains were purified by affinity chromatography on a glutathione-agarose column (Scientifix Pty. Ltd. catalog #: GSH-200).
(§5) Kinase assays were performed in 384 well Optiplates (Packard) using an Alphascreen Protein Tyrosine Kinase PY100 detection kit The compounds were pre-incubated with affinity purified PTK domain in the presence of phosphotyrosine assay buffer (10 mM HEPES, pH 7.5, 100 mM MgCl2, 25 mM NaCl, […] and 0.1% Tween 20) for 20 minutes. The compounds were then incubated with substrate in the presence of ATP. The substrate used was susbtrate-1 with the sequence biotin-EGPWLEEEEEAYGWMDF-NH2 [SEQ. ID. NO. 13] (final concentration […]). For HCK 80 μm ATP was used and incubated for 60 minutes. Alphascreen phosphotyrosine acceptor beads followed by streptavidin donor beads at a concentration of 1/100 in stop buffer were added to each well under subdued light and incubated for 2-3 hours., The Alphascreen plates were read on a Packard Fusion Alpha instrument.

human JAK3 = target: T3, human JAK3 (Homo sapiens, UniProt P52333); experiment: Alphascreen tyrosine kinase enzyme assay, JAK3 kinase domain; details: read-out: JAK3 IC50_nM
T3 construct: The kinase domain of human JAK3 was amplified; GST (N); made in house; host or cells: Sf9 insect cells (baculovirus)
Protocol: as §3
The kinase domain of human JAK3 was amplified from U937mRNA using the polymerase chain reaction with the following primers: […]
The JAK3 PCR products were cloned into the pDest20 destination expression vector (Gibco). The JAK3 plasmid was then transformed into competent DH10Bac cells (Gibco), and the recombinant baculovirus was prepared via Sf9 insect cell transfection.
as §4, §5

Bmx(h) = target: T4, Bmx(h) (Homo sapiens, UniProt P51813); experiment: Upstate KinaseProfiler enzyme assay, Bmx; details: 500 nM compound; read-out: Percent inhibition at 500 nM Bmx(h)
T4 construct: purchased Upstate Biotechnology (Dundee, UK), KinaseProfiler service
T4 sequence (P51813 1-675): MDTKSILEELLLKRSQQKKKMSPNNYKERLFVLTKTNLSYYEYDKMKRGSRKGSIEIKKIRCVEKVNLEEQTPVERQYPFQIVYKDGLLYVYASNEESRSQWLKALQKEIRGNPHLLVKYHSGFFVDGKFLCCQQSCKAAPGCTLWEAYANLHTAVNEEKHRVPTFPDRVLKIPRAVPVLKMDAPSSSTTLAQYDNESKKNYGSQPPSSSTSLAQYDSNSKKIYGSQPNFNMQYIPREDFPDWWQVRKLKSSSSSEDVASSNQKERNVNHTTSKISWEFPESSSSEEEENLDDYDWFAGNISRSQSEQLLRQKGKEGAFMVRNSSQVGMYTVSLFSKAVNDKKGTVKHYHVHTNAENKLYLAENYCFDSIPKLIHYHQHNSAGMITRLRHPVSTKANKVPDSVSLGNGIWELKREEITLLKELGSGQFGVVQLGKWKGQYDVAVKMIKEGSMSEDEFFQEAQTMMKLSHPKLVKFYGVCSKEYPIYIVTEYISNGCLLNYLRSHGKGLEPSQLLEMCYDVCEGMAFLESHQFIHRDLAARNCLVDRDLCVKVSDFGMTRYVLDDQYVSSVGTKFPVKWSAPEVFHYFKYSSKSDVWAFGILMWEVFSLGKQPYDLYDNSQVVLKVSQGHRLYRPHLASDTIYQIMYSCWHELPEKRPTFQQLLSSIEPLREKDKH
Protocol: as §1, §2

Blk(m) = target: T5, Blk(m) (Mus musculus, UniProt P16277); experiment: Upstate KinaseProfiler enzyme assay, Blk; details: 500 nM compound; read-out: Percent inhibition at 500 nM Blk(m)
T5 construct: purchased Upstate Biotechnology (Dundee, UK), KinaseProfiler service
Protocol: as §1, §2

KDR(h) = target: T6, KDR(h) (Homo sapiens, UniProt P35968); experiment: Upstate KinaseProfiler enzyme assay, KDR; details: 500 nM compound; read-out: Percent inhibition at 500 nM KDR(h)
T6 construct: purchased Upstate Biotechnology (Dundee, UK), KinaseProfiler service
Protocol: as §1, §2

Flt 1(h) = target: T7, Flt 1(h) (Homo sapiens, UniProt P17948); experiment: Upstate KinaseProfiler enzyme assay, Flt 1; details: 500 nM compound; read-out: Percent inhibition at 500 nM Flt 1(h)
T7 construct: purchased Upstate Biotechnology (Dundee, UK), KinaseProfiler service
Protocol: as §1, §2

[1] = target: T8, Human hemopoietic cell protein-tyrosine kinase (HCK) (Homo sapiens, UniProt P08631); experiment: Alphascreen tyrosine kinase enzyme assay, HCK kinase domain; details: read-out: FMS, FLT3, or HCK IC50_nM (HCK)
T8 construct: GST (N); made in house; host or cells: Sf9 insect cells (baculovirus)
Protocol: as §3
The kinase domain of Human hemopoietic cell protein-tyrosine kinase (HCK) between L212 and P505 (accession number M16592) was amplified from U937 mRNA using the polymerase chain reaction.
The PCR product was cloned into the pDest20 destination vector (Gibco). The plasmid was then transformed into competent […] cells (Gibco) to produce a HCK bacmid. The recombinant baculovirus was prepared via Sf9 insect cell transfection with bacmid DNA.
as §4, with “GSH-200). […]” for “GSH-200).”

human CSF1-R (FMS) = target: T9, human CSF1-R (FMS) (Homo sapiens, UniProt P07333); experiment: Alphascreen tyrosine kinase enzyme assay, CSF-1R (FMS) kinase domain; details: read-out: FMS, FLT3, or HCK IC50_nM (FMS)
T9 construct: from codon I553 to Q961; GST (N); made in house; host or cells: Sf9 insect cells (baculovirus)
T9 sequence (P07333 553-961): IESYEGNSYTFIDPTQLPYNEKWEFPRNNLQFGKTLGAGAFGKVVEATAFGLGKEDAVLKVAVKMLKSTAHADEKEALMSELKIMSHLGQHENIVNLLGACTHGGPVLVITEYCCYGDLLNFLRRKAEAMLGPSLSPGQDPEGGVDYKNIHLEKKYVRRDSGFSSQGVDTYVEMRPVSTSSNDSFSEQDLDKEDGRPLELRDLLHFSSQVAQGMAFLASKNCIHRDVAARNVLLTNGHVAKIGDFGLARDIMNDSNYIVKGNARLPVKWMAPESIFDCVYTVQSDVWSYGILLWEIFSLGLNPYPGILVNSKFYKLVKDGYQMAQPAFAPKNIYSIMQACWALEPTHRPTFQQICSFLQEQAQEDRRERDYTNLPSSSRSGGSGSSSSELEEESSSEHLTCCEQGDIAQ
Protocol: as §3
The kinase domain of human CSF1-R from codon I553 to Q961 was cloned into the pDest20 expression vector (Invitrogen). The CSF1-R plasmid was then transformed into competent DH10Bac cells (Gibco), and the recombinant baculovirus produced prepared for transfection into Sf9 insect cells.
as §4, §5

BTK(h) = target: T10, BTK(h) (Homo sapiens, UniProt Q06187); experiment: Upstate KinaseProfiler enzyme assay, BTK; details: 500 nM compound; read-out: Percent inhibition at 500 nM BTK(h)
T10 construct: purchased Upstate Biotechnology (Dundee, UK), KinaseProfiler service
Protocol: as §1, §2

T5 sequence (P16277 whole entry): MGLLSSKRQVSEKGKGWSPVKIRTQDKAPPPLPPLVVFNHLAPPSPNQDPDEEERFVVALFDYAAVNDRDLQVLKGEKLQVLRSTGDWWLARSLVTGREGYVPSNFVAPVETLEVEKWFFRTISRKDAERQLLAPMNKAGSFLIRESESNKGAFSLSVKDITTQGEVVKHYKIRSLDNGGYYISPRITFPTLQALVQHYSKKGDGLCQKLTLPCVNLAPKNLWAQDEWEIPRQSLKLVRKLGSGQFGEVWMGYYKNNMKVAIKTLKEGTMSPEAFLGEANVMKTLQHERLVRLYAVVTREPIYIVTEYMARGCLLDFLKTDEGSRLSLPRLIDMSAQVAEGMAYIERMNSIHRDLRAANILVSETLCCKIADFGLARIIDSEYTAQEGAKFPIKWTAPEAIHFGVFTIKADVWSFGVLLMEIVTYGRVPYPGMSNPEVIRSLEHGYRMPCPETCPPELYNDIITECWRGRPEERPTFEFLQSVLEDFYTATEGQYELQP
T6 sequence (P35968 20-1356): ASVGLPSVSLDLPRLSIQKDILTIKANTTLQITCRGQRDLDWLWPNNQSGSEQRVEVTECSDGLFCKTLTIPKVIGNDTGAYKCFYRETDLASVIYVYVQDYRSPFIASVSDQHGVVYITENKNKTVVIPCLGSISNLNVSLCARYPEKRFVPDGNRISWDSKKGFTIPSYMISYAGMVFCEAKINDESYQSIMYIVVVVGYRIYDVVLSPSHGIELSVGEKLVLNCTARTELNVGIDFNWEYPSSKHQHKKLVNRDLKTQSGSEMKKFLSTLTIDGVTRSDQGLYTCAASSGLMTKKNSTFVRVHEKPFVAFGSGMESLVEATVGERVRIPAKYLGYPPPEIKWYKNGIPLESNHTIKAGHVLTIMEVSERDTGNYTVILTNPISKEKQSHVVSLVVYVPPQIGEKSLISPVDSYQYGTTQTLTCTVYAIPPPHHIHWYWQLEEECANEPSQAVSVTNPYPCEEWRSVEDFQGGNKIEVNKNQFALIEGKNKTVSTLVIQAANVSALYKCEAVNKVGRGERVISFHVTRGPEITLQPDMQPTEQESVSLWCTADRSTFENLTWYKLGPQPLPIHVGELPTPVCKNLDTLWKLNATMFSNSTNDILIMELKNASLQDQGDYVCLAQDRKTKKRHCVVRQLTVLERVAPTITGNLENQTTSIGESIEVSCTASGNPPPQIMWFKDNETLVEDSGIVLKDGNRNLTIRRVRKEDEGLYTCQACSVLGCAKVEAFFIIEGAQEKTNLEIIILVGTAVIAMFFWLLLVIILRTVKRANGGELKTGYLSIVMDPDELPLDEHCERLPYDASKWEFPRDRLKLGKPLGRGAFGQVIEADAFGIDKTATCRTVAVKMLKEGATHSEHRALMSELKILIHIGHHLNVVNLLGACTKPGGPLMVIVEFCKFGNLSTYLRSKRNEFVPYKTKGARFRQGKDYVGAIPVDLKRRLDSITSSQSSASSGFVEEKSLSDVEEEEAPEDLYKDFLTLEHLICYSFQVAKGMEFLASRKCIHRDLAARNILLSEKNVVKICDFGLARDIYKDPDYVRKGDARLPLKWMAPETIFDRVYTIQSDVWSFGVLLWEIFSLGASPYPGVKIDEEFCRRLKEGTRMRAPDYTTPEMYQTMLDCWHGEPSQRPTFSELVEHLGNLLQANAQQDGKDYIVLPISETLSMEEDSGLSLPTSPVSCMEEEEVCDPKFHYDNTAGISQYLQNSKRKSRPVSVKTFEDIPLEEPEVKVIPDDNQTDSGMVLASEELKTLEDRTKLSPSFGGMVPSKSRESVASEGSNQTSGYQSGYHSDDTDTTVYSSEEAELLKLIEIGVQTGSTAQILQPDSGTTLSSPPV
T7 sequence (P17948 27-1338): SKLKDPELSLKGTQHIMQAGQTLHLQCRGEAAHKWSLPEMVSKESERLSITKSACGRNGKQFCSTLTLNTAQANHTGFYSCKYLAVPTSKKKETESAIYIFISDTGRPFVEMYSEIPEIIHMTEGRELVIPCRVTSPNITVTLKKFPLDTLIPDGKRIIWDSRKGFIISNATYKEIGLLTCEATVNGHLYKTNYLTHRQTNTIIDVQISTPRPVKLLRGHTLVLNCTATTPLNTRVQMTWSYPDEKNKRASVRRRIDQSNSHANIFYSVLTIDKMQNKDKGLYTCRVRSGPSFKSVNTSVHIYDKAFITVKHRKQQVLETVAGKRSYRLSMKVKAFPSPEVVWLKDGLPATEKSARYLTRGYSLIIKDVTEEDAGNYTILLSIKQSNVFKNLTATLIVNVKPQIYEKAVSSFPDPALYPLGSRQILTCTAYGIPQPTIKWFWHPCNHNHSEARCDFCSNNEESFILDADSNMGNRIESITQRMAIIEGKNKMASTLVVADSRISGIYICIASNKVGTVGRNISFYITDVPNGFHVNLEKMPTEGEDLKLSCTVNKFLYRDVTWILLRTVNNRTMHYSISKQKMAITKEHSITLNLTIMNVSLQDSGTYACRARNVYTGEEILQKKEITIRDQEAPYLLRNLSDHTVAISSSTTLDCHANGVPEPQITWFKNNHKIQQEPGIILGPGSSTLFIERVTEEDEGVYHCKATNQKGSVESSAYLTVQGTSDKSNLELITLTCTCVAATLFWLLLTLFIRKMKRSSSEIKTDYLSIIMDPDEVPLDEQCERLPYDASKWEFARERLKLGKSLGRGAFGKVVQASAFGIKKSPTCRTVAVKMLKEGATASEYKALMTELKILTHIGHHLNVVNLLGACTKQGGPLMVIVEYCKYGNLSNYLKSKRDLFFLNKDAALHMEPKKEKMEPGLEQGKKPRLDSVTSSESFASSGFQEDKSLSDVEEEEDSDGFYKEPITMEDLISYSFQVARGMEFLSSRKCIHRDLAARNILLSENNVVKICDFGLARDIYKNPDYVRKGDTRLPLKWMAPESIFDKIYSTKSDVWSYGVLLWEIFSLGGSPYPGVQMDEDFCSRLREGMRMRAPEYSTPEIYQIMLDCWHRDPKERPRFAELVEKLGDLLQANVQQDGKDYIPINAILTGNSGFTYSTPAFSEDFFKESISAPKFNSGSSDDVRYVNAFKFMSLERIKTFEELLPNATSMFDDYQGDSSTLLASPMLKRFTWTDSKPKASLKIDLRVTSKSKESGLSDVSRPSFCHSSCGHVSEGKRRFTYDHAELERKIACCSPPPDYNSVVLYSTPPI
T10 sequence (Q06187 whole entry): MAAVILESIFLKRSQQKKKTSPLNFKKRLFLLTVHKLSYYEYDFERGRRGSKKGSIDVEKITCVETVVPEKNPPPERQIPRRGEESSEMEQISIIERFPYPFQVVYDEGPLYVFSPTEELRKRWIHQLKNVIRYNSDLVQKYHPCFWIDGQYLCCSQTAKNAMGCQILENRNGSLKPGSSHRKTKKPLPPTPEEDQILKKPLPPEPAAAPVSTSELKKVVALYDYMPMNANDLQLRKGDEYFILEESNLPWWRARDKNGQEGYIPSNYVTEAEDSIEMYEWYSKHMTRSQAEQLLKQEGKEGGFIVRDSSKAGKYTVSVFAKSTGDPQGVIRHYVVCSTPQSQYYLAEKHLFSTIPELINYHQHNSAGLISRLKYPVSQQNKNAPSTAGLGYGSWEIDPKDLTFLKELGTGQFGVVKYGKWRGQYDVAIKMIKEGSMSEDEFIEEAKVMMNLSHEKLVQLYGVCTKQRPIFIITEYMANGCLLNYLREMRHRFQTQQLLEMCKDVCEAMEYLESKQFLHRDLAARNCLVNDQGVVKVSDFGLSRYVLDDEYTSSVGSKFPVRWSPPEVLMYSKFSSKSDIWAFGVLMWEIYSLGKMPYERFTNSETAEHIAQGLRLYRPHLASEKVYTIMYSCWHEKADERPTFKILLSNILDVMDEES
T3 sequence (P52333 822-1111 limits assumed): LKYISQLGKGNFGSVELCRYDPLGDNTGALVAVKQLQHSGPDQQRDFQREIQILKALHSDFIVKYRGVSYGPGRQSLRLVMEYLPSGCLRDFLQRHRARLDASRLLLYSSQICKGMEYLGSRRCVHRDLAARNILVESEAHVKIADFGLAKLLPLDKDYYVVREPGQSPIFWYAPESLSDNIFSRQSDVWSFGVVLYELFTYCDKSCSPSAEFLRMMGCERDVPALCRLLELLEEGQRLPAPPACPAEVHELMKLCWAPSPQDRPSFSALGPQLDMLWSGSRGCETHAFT
T2 sequence (O60674 849-1124 limits assumed): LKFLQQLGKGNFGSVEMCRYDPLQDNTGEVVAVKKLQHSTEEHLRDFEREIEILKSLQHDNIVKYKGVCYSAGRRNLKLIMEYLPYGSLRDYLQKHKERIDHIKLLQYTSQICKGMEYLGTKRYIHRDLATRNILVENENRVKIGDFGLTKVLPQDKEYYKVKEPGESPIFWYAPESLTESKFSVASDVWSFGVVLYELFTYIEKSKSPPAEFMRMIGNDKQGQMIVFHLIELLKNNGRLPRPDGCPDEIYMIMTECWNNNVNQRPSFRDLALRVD
T8 sequence (P08631 233-526): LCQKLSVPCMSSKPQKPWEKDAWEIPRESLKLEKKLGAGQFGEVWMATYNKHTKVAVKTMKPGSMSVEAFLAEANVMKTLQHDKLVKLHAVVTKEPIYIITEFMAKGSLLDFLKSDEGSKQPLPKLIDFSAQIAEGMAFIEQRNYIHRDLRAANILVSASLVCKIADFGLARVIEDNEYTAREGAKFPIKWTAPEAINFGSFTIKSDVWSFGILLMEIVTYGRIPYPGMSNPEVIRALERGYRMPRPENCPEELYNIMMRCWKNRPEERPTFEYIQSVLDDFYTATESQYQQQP

| Structure (SMILES) | inhibition at 0.5 µM (Flt 4(h)) | IC50 (human JAK2) | IC50 (human JAK3) | inhibition at 0.5 µM (Bmx(h)) | inhibition at 0.5 µM (Blk(m)) | inhibition at 0.5 µM (KDR(h)) | inhibition at 0.5 µM (Flt 1(h)) | IC50 [1] | IC50 (human CSF1-R (FMS)) | inhibition at 0.5 µM (BTK(h)) |
| --- | --- | --- | --- | --- | --- | --- | --- | --- | --- | --- |
| C=CC(=O)N1CCc2cc(Sc3nc(Nc4ccc(N5CCOCC5)cc4)ncc3C)ccc21 [Compound 170, 1-(5-(5-methyl-2-(4-morpholinophenylao)pyrimidin-4-ylthio)indolin-1-yl)prop-2-en-1-one] | 99% | > 1 µM | < 0.1 µM | 97% | 96% | 97% | 74% |  |  |  |
| Oc1cccc(Sc2ccnc(Nc3ccc(N4CCOCC4)cc3)n2)c1 [Compound 38, 3-(2-(4-morpholinophenylao)pyrimidin-4-ylthio)phenol] |  |  |  |  |  |  |  | < 0.5 µM | < 0.5 µM |  |
| C/C=C/C(=O)Nc1ccc(Sc2ccnc(Nc3ccc(N4CCOCC4)cc3)n2)cc1 [Compound 59, (E)-N-(4-(2-(4-morpholinophenylao)pyrimidin-4-ylthio)phenyl)but-2-enamide] |  |  |  | 100% | 100% | 100% |  |  |  | 100% |
| C=CC(=O)N1CCCc2cc(Sc3nc(Nc4ccc(N5CCOCC5)cc4)ncc3C)ccc21 [Compound 168, 1-(6-(5-methyl-2-(4-morpholinophenylao)pyrimidin-4-ylthio)-3,4-dihydroquinolin-1(2H)-yl)prop-2-en-1-one] | 99% | > 1 µM | < 0.1 µM | 92% | 98% | 96% | 66% |  |  |  |
| C=C(C)C(=O)Nc1cccc(Sc2ccnc(Nc3ccc(N4CCOCC4)cc3)n2)c1 [Compound 115, N-(3-(2-(4-morpholinophenylao)pyrimidin-4-ylthio)phenyl)methacrylamide] |  |  |  | 100% | 100% | 100% |  |  |  | 100% |
